In US10517889B2, “Modulators of SMAD7 expression” (Ionis Pharmaceuticals, Inc., priority 2017, dated 2019):
Strand notation (5' to 3'): a small letter for the sugar, then the base; units joined by * are phosphorothioate-linked, units joined directly phosphodiester-linked; [ ] holds rarer units or linkages, { } end groups; capitals alone tell only the bases. e = 2'-O-(2-methoxyethyl) (MOE); [5mC] = 5-methylcytosine; d = 2'-deoxy (DNA)

tested on: human SMAD7 mRNA; test: Antisense inhibition of human SMAD7 mRNA expression in Hep3B cells by 5-10-5 MOE gapmers, single concentration, electroporation, RT-PCR (Example 1, Study 1 and 2); format: cell-based; conditions: Study 2, electroporation with 15,000 nM antisense oligonucleotide, 5-10-5 MOE gapmers targeting SEQ ID NO: 1 and 2
How it was run: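 Readout is percent SMAD7 mRNA inhibition versus untreated cells, measured by qRT-PCR (RTS5062) and corrected for total RNA by RIBOGREEN. Oligonucleotide, 5,000 nM or 15,000 nM, was delivered by electroporation into Hep3B cells at 20,000 per well. RNA was collected about 24 h later.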

Question: Which “% Inhibition” value does the source give for “771431 (eG*e[5mC]*e[5mC]*e[5mC]*e[5mC]*d[5mC]*dG*dG*d[5mC]*d[5mC]*dG*d[5mC]*dG*d[5mC]*d[5mC]*eG*eG*e[5mC]*eG*e[5mC]; antisense) [compound 771431]” here?
Answer: 37%

Question: Which “% Inhibition” value does the source give for “771432 (e[5mC]*eA*eG*eT*eT*dT*d[5mC]*dT*dT*dG*dA*dG*d[5mC]*dA*d[5mC]*e[5mC]*eG*eA*eG*eT; antisense) [compound 771432]” here?
Answer: 28%

Question: With “771436 (eG*eA*eG*e[5mC]*eA*dG*d[5mC]*dA*dG*d[5mC]*dT*d[5mC]*d[5mC]*dA*dG*e[5mC]*eT*eG*e[5mC]*e[5mC]; antisense) [compound 771436]” as the substance, how does the “% Inhibition” value read?
Answer: 27%

Question: For “771437 (eG*e[5mC]*e[5mC]*eT*eG*dG*dA*dG*d[5mC]*dA*dG*d[5mC]*dA*dG*d[5mC]*eT*e[5mC]*e[5mC]*eA*eG; antisense) [compound 771437]”, which “% Inhibition” value is on record?
Answer: 0%

Question: How did the “% Inhibition” value turn out when “771440 (e[5mC]*eG*eG*e[5mC]*eT*dG*d[5mC]*dG*d[5mC]*dA*dG*dG*d[5mC]*dT*dG*e[5mC]*eG*e[5mC]*eG*e[5mC]; antisense) [compound 771440]” was run?
Answer: 48%

Question: With “771445 (eA*e[5mC]*eA*eG*e[5mC]*d[5mC]*dT*d[5mC]*dT*dT*dG*dA*d[5mC]*dT*dT*e[5mC]*e[5mC]*eG*eA*eG; antisense) [compound 771445]” as the substance, how does the “% Inhibition” value read?
Answer: 10%

Question: For “771447 (eA*eA*e[5mC]*eA*e[5mC]*dA*dG*d[5mC]*d[5mC]*dT*d[5mC]*dT*dT*dG*dA*e[5mC]*eT*eT*e[5mC]*e[5mC]; antisense) [compound 771447]”, which “% Inhibition” value is on record?
Answer: 19%

Question: How did the “% Inhibition” value turn out when “771448 (eG*eA*eG*eT*e[5mC]*dG*dG*d[5mC]*dT*dA*dA*dG*dG*dT*dG*eA*eT*eG*eG*eG; antisense) [compound 771448]” was run?
Answer: 29%

Question: How did the “% Inhibition” value turn out when “771452 (antisense eG*eG*eT*eA*eT*d[5mC]*dT*dG*dG*dA*dG*dT*dA*dA*dG*eG*eA*eG*eG*eG) [compound 771452]” was run?
Answer: 55%

Question: “771453 (antisense eA*eT*e[5mC]*eT*eG*dG*dA*d[5mC]*dA*dG*dT*d[5mC]*dT*dG*d[5mC]*eA*eG*eT*eT*eG) [compound 771453]” was tested. Which “% inhibition of SMAD7 mRNA expression” value did it give?
Answer: 38%

Question: Which “% Inhibition” value does the source give for “771463 (antisense eG*eG*e[5mC]*eT*e[5mC]*d[5mC]*dT*dG*dG*dA*d[5mC]*dA*d[5mC]*dA*dG*eT*eA*eG*eA*eG) [compound 771463]” here?
Answer: 10%

Question: Which “% inhibition of SMAD7 mRNA expression” value does the source give for “771469 (antisense eT*eT*e[5mC]*eT*eG*d[5mC]*dA*d[5mC]*d[5mC]*dA*dG*d[5mC]*dT*dG*dA*e[5mC]*eT*e[5mC]*eT*eT) [compound 771469]” here?
Answer: 13%

Question: How did the “% inhibition of SMAD7 mRNA expression” value turn out when “771471 (antisense eG*e[5mC]*eT*e[5mC]*e[5mC]*dG*d[5mC]*dA*d[5mC]*d[5mC]*dT*dT*d[5mC]*dT*dG*e[5mC]*eA*e[5mC]*e[5mC]*eA) [compound 771471]” was run?
Answer: 43%

Question: How did the “% inhibition of SMAD7 mRNA expression” value turn out when “771472 (antisense eA*eT*eT*eT*eT*dG*d[5mC]*dT*d[5mC]*d[5mC]*dG*d[5mC]*dA*d[5mC]*d[5mC]*eT*eT*e[5mC]*eT*eG) [compound 771472]” was run?
Answer: 0%

same assay, conditions: electroporation with 15,000 nM antisense oligonucleotide (Study 2), 5-10-5 MOE gapmers targeting SEQ ID NO: 1 and 2

Question: How did the “% Inhibition of SMAD7 mRNA” value turn out when “771433 (eT*e[5mC]*e[5mC]*eT*eT*d[5mC]*dA*dG*dT*dT*dT*d[5mC]*dT*dT*dG*eA*eG*e[5mC]*eA*e[5mC]; antisense) [compound 771433]” was run?
Answer: 28%

Question: With “771449 (eT*e[5mC]*eG*e[5mC]*eA*dG*dA*dG*dT*d[5mC]*dG*dG*d[5mC]*dT*dA*eA*eG*eG*eT*eG; antisense) [compound 771449]” as the substance, how does the “% Inhibition of SMAD7 mRNA” value read?
Answer: 4%

Question: Which “% inhibition of SMAD7 mRNA expression” value does the source give for “771451 (antisense eA*eG*eA*e[5mC]*eT*d[5mC]*dT*dA*dG*dT*dT*d[5mC]*dG*d[5mC]*dA*eG*eA*eG*eT*e[5mC]) [compound 771451]” here?
Answer: 15%

Question: With “771465 (antisense eA*eT*e[5mC]*e[5mC]*eA*dG*dA*dG*dA*dG*dG*dG*d[5mC]*dT*d[5mC]*e[5mC]*eT*eG*eG*eA) [compound 771465]” as the substance, how does the “% Inhibition of SMAD7 mRNA” value read?
Answer: 16%

Question: With “771473 (antisense eA*eG*e[5mC]*e[5mC]*eG*dA*dT*dT*dT*dT*dG*d[5mC]*dT*d[5mC]*d[5mC]*eG*e[5mC]*eA*e[5mC]*e[5mC]) [compound 771473]” as the substance, how does the “% Inhibition of SMAD7 mRNA” value read?
Answer: 37%

same assay, conditions: electroporation, 5,000 nM, approximately 24 hours, relative to untreated control cells, gapmers targeting SEQ ID NO: 1 and 2

Question: “771436 (eG*eA*eG*e[5mC]*eA*dG*d[5mC]*dA*dG*d[5mC]*dT*d[5mC]*d[5mC]*dA*dG*e[5mC]*eT*eG*e[5mC]*e[5mC]; antisense) [compound 771436]” was tested. Which “% inhibition of SMAD7 mRNA expression” value did it give?
Answer: 50%

Question: How did the “% inhibition of SMAD7 mRNA expression” value turn out when “771452 (antisense eG*eG*eT*eA*eT*d[5mC]*dT*dG*dG*dA*dG*dT*dA*dA*dG*eG*eA*eG*eG*eG) [compound 771452]” was run?
Answer: 25%

same assay, conditions: electroporation, 15,000 nM antisense oligonucleotide (Study 2), 5-10-5 MOE gapmers targeting SEQ ID NO: 1 and 2

Question: How did the “% inhibition of SMAD7 mRNA expression” value turn out when “771433 (eT*e[5mC]*e[5mC]*eT*eT*d[5mC]*dA*dG*dT*dT*dT*d[5mC]*dT*dT*dG*eA*eG*e[5mC]*eA*e[5mC]; antisense) [compound 771433]” was run?
Answer: 0%

Question: With “771434 (eG*e[5mC]*e[5mC]*eG*e[5mC]*dT*d[5mC]*d[5mC]*dT*dT*d[5mC]*dA*dG*dT*dT*eT*e[5mC]*eT*eT*eG; antisense) [compound 771434]” as the substance, how does the “% inhibition of SMAD7 mRNA expression” value read?
Answer: 27%

Question: How did the “% inhibition of SMAD7 mRNA expression” value turn out when “771435 (e[5mC]*eA*eG*e[5mC]*eT*dG*d[5mC]*d[5mC]*dG*d[5mC]*dT*d[5mC]*d[5mC]*dT*dT*e[5mC]*eA*eG*eT*eT; antisense) [compound 771435]” was run?
Answer: 29%

Question: With “771442 (e[5mC]*eT*e[5mC]*eT*eT*dG*dA*d[5mC]*dT*dT*d[5mC]*d[5mC]*dG*dA*dG*eG*eA*eA*eT*eG; antisense) [compound 771442]” as the substance, how does the “% inhibition of SMAD7 mRNA expression” value read?
Answer: 22%

Question: How did the “% inhibition of SMAD7 mRNA expression” value turn out when “771443 (eG*e[5mC]*e[5mC]*eT*e[5mC]*dT*dT*dG*dA*d[5mC]*dT*dT*d[5mC]*d[5mC]*dG*eA*eG*eG*eA*eA; antisense) [compound 771443]” was run?
Answer: 30%

Question: How did the “% inhibition of SMAD7 mRNA expression” value turn out when “771449 (eT*e[5mC]*eG*e[5mC]*eA*dG*dA*dG*dT*d[5mC]*dG*dG*d[5mC]*dT*dA*eA*eG*eG*eT*eG; antisense) [compound 771449]” was run?
Answer: 0%

Question: For “771450 (antisense e[5mC]*eT*eA*eG*eT*dT*d[5mC]*dG*d[5mC]*dA*dG*dA*dG*dT*d[5mC]*eG*eG*e[5mC]*eT*eA) [compound 771450]”, which “% inhibition of SMAD7 mRNA expression” value is on record?
Answer: 45%

Question: With “771465 (antisense eA*eT*e[5mC]*e[5mC]*eA*dG*dA*dG*dA*dG*dG*dG*d[5mC]*dT*d[5mC]*e[5mC]*eT*eG*eG*eA) [compound 771465]” as the substance, how does the “% inhibition of SMAD7 mRNA expression” value read?
Answer: 0%

Question: For “771466 (antisense eA*eA*eG*eA*eT*dA*dT*d[5mC]*d[5mC]*dA*dG*dA*dG*dA*dG*eG*eG*e[5mC]*eT*e[5mC]) [compound 771466]”, which “% inhibition of SMAD7 mRNA expression” value is on record?
Answer: 38%

Question: “771467 (antisense e[5mC]*eA*eT*eA*eG*dA*dA*dG*dA*dT*dA*dT*d[5mC]*d[5mC]*dA*eG*eA*eG*eA*eG) [compound 771467]” was tested. Which “% inhibition of SMAD7 mRNA expression” value did it give?
Answer: 11%

Question: Which “% inhibition of SMAD7 mRNA expression” value does the source give for “771473 (antisense eA*eG*e[5mC]*e[5mC]*eG*dA*dT*dT*dT*dT*dG*d[5mC]*dT*d[5mC]*d[5mC]*eG*e[5mC]*eA*e[5mC]*e[5mC]) [compound 771473]” here?
Answer: 9%

same assay, conditions: electroporation, 15,000 nM, approximately 24 hours, relative to untreated control cells, gapmers targeting SEQ ID NO: 1 and 2

Question: For “771438 (e[5mC]*e[5mC]*eA*e[5mC]*eG*dG*d[5mC]*d[5mC]*dT*dG*dG*dA*dG*d[5mC]*dA*eG*e[5mC]*eA*eG*e[5mC]; antisense) [compound 771438]”, which “% inhibition of SMAD7 mRNA expression” value is on record?
Answer: 26%

Question: “771446 (e[5mC]*eA*e[5mC]*eA*eG*d[5mC]*d[5mC]*dT*d[5mC]*dT*dT*dG*dA*d[5mC]*dT*eT*e[5mC]*e[5mC]*eG*eA; antisense) [compound 771446]” was tested. Which “% inhibition of SMAD7 mRNA expression” value did it give?
Answer: 55%

Question: With “771462 (antisense e[5mC]*eT*eG*eG*eA*d[5mC]*dA*d[5mC]*dA*dG*dT*dA*dG*dA*dG*e[5mC]*e[5mC]*eT*e[5mC]*e[5mC]) [compound 771462]” as the substance, how does the “% inhibition of SMAD7 mRNA expression” value read?
Answer: 31%

Question: Which “% inhibition of SMAD7 mRNA expression” value does the source give for “771470 (antisense eG*e[5mC]*eA*e[5mC]*e[5mC]*dT*dT*d[5mC]*dT*dG*d[5mC]*dA*d[5mC]*d[5mC]*dA*eG*e[5mC]*eT*eG*eA) [compound 771470]” here?
Answer: 56%
